# Experimental data as given in US20140066449A1, “DIPYRIDINIUM DERIVATIVES” (SABREPHARM LIMITED, priority 2011, published 2014).
# Values joined by “and” are separate entries in the source; they are usually repeats but may differ in a detail not shown here. Equal values may be shown once. Read-outs that look alike come from different tables or passages of the source.
# Assays:
# [1] = test system: H460 non-small cell lung adenocarcinoma; assay: MTT in vitro cytotoxicity, H460; assay type: cell-based; conditions: H460, 10 day exposure
# Protocol: (§1) All were stored in the dark at 4° C. An accurately weighed amount of each compound was dissolved in DMSO and Hank's Balanced Salt Solution (Sigma) according to Table 2 below:
# (§2) Further dilutions were made in complete RPMI1640 cell culture medium (RPMI1640 cell culture medium supplemented with 10% foetal bovine serum, 1 mM L-glutamine, and 2 mM sodium pyruvate (all from Sigma)).
# (§3) H460 non-small cell lung adenocarcinoma, HT-29 colon adenocarcinoma and MCF-7 breast adenocarcinoma (ECACC, Salisbury, Wiltshire) were used for analysis. Cells were cultured in complete RPMI1640 cell culture medium, and maintained as monolayer cultures at 37° C. in a humidified 5% CO2 environment.
# (§4) Tumour cell growth inhibition was assessed using the MTT assay with a standard 96 hour plus an extended 10 day incubation. For the 96 hour assay 1×10^4 cells were inoculated into each well of a 96-well plate and incubated overnight at 37° C. in a humidified atmosphere containing 5% CO2 to give time to adhere to the wells and form a monolayer. For the 10 day incubation, 1×102 (H460 and HT-29) and 1×103 (MCF-7) cells were inoculated. The next day, culture medium was removed from each well and replaced with cell culture media for the untreated control, or media containing compound, and the plates then incubated for a further 96 hours or 10 days. […] After 96 hours or 10 days culture medium was removed and 200 μL of 0.5 mgmL-1 MTT solution (Sigma) in complete medium added to each well. Following a further 4 hours incubation, the solution was removed from each well and 150 μL of DMSO added to solubilise the formazan crystals resulting from MTT conversion. Absorbance values for the resulting solutions were read at 550 nm on a Multiskan Ex microplate reader (Thermo Fisher, Loughborough, UK) and cell survival calculated as the absorbance of treated cells divided by the control. Results are expressed in terms of IC50 values (i.e. concentration of compound required to kill 50% of cells), which were determined manually in Microsoft Excel from plots of concentration versus percentage cell survival, and all experiments were performed in triplicate.
# [2] = test system: HT-29 colon adenocarcinoma; assay: MTT in vitro cytotoxicity, HT-29; assay type: cell-based; conditions: HT-29, 10 day exposure
# Protocol: as §1, §2, §3, §4
# [3] = test system: MCF-7 breast adenocarcinoma; assay: MTT in vitro cytotoxicity, MCF-7; assay type: cell-based, human; conditions: MCF-7, 10 day exposure
# Protocol: as §1, §2, §3, §4
# [4] = test system: A2780 [ovarian]; assay: Combination with cisplatin, A2780; assay type: cell-based
# [5] = test system: A2780/cis [cisplatin ovarian resistant line]; assay: Combination with cisplatin, A2780/cis; assay type: cell-based
# [6] = test system: M 14 [melanoma]; assay: Combination with cisplatin, M14; assay type: cell-based
# [7] = test system: MCF7 [Breast]; assay: Combination with cisplatin, MCF-7; assay type: cell-based, human
# [8] = test system: MCF-7 Human Breastadenocarclnoma Xenograft; assay: MCF-7 xenograft model study; assay type: in vivo, mice
# From the text: Evaluation of the Efficacy of the Compounds C & D (Examples 2 & 3 Respectively) in the MCF-7 Human Breastadenocarclnoma Xenograft Model
# [9] = Redox potential study, square wave voltammetry; assay type: physicochemical; conditions: 0.1 mol dm-3 LiNTf2, 20° C., first scan
# Protocol: BioAnalytical Systems CV50W potentiostat (from BAS Inc., USA)
# Square wave voltammetry (4 mV step, 25 mV pulse, 10 Hz SW frequency)
# 3 mm diameter glassy carbon working electrode (from BAS)
# 3 mm diameter glassy carbon counter electrode (from BAS)
# Saturated calomel reference electrode (SCE, from Sycopel Scientific Ltd., UK)
# 0.1 mol dm-3 lithium bis(trifluoromethanesulphonyl)imide ((LiNTf2)CAS 90076-65-6, from 3M)
# Voltammograms were recorded from 0.5 V to −1.2 V in deoxygenated solutions of the Compounds.
# [10] = test system: human mitochondria isolated from HEK293 cells; assay: ROS production in isolated mitochondria (DCFDA); assay type: biochemical; conditions: isolated HEK293 mitochondria, 100 μM, 120 mins
# Protocol: The ability of test compounds to impact ROS production in isolated mitochondria after 120 mins exposure was assessed.
# Mitochondria were isolated from harvested human embryonic kidney (HEK293) cells (20×10^6) using a commercial kit (Thermo Scientific) before re-suspension in PBS to a final volume of 800 μL. […] Independent experiments (each assessing the impact of all four compounds along with a positive [AAPH; 5.0 mM] and vehicle control) were repeated three times.
# [11] = highest concentration 30 μM, read-out: IC50 Run 1
# [12] = highest concentration 100 μM, read-out: IC50 Run 2
# [13] = highest concentration 100 μM, read-out: IC50 Run 3
# [14] = mean of runs, read-out: IC50 Mean
# [15] = cisplatin 1 μM alone (compound 0 μM)
# [16] = cisplatin 3 μM alone (compound 0 μM)
# [17] = cisplatin 10 μM alone (compound 0 μM)
# [18] = 200 mg/kg, i.v., d 0, 2, 4, 7, 9 & 11
Compound,"IC50 [1, 11]","IC50 [1, 12]","IC50 [1, 13]","IC50 [2, 11]","IC50 [2, 12]","IC50 [2, 13]","IC50 [3, 11]","IC50 [3, 12]","IC50 [3, 13]","Growth delay [8, 18]","Maximum % weight loss [8, 18]",Reduction potential 1 [9],Reduction potential 2 [9],also measured
N.N.[Cl][Pt][Cl] [Cisplatin],1.1 µM,1 µM,0.9 µM,2.4 µM,1.3 µM,0.7 µM,2.3 µM,2.3 µM,2.5 µM,–,–,–,–,"IC50 [1, 14]: 1 µM; IC50 [2, 14]: 1.5 µM; IC50 [3, 14]: 2.4 µM; % cell survival [4, 15]: 49.5% and 52.5%; % cell survival [4, 16]: 19.6% and 19.2%; % cell survival [4, 17]: 4.8% and 5.8%; % cell survival [5, 17]: 36.3% and 39.7%; % cell survival ([5]; cisplatin 30 μM alone (compound 0 μM)): 8.7% and 8.6%; % cell survival ([5]; cisplatin 100 μM alone (compound 0 μM)): −0.5% and 1.1%; % cell survival [6, 15]: 85.6% and 97.7%; % cell survival [6, 16]: 77.1% and 84.8%; % cell survival [6, 17]: 58.3% and 63.3%; % cell survival ([7]; cisplatin 0.1 μM alone (compound 0 μM)): 107.4% and 110.8%; % cell survival ([7]; cisplatin 0.3 μM alone (compound 0 μM)): 76% and 91.3%; % cell survival [7, 15]: 72.4% and 70.3%; Growth delay ([8]; 10 mg/kg, i.p., d 0): 5.1 days; Maximum % weight loss ([8]; 10 mg/kg, i.p., d 0): 8.0%; weight loss of tumour bearing mice ([8]; xenograft studies, FIG. 6): significant weight loss"
"3-((2-(2-methoxy-ethoxy)(ethoxy)n)methyl)-6,7-dihydrodipyrido[1,2-a:2′,1′-c]pyrazine-5,8-diium bistrifluoromethanesulfonate [Compound C]",> 30 µM,> 100 µM,> 100 µM,> 30 µM,82 µM,78 µM,> 30 µM,97 µM,> 100 µM,3.1 days,0%,−0.470 V vs. SCE,−0.803 V vs. SCE,–
"3-(((2-(2-methoxyethoxy)(ethoxy)n)ethyl) hexane-1,6-diyldicarbamate)methyl)-6,7-dihydrodipyrido[1,2-a:2′,1′-c]pyrazine-5,8-diium bistrifluoromethanesulfonate [G]",–,–,–,–,–,–,–,–,–,–,–,–,–,rank order of efficacy (ROS production) [10]: F>G>B>A; ROS production relative to vehicle treatment ([10]; room temperature): robustly increased ROS production
"3-(((2-(2-methoxyethoxy)(ethoxy)n)ethyl) hexane-1,6-diyldicarbamate)methyl)-6,7-dihydrodipyrido[1,2-a:2′,1′-c]pyrazine-5,8-diium bistrifluoromethanesulfonate [Compound D]",> 30 µM,> 100 µM,> 100 µM,> 30 µM,> 100 µM,81 µM,> 30 µM,72 µM,> 100 µM,2.4 days,0%,−0.423 V vs. SCE,−0.828 V vs. SCE,–
